According to ChEMBL document CHEMBL1201862, “PubChem BioAssay data set” (2004):
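Grown in 96-well plates, cells were treated for 48 hours with each compound at five concentrations. Insufficient inhibition: endpoint recorded as highest concentration tested. GI50 marks 50% less growth.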 The source made the active and inactive calls. Cut-off read from the data, not from the text of the source: active = GI50 up to about 1.1 µM and inactive = higher.

Assays:
Test in all cases: NCI anticancer screen, dose series, 48 h
[1] = test system: RXF 393
[2] = test system: UO-31
[3] = test system: MDA-N
[4] = test system: NCI-H460
[5] = test system: SF-539
[6] = test system: SK-MEL-28
[7] = test system: HCT-15
[8] = test system: SF-295
[9] = test system: SK-OV-3
[10] = test system: SK-MEL-2
[11] = test system: SNB-19
[12] = test system: CAKI-1
[13] = test system: HCC 2998
[14] = test system: HOP-92
[15] = test system: BT-549
[16] = test system: UACC-62
[17] = test system: EKVX
[18] = test system: ACHN
[19] = test system: RPMI-8226
[20] = test system: SNB-75

| Structure (SMILES) | GI50 [1] | GI50 [2] | GI50 [3] | GI50 [4] | GI50 [5] | GI50 [6] | GI50 [7] [µM] | GI50 [8] | GI50 [9] | GI50 [10] | GI50 [11] | GI50 [12] | GI50 [13] | GI50 [14] | GI50 [15] | GI50 [16] | GI50 [17] | GI50 [18] | GI50 [19] | GI50 [20] |
| --- | --- | --- | --- | --- | --- | --- | --- | --- | --- | --- | --- | --- | --- | --- | --- | --- | --- | --- | --- | --- |
| O=S(=O)(O)c1ccc(/N=N/c2ccccc2)cc1 | > 100 µM (inactive) | > 100 µM (inactive) | > 100 µM (inactive) | > 100 µM (inactive) | > 100 µM (inactive) | > 100 µM (inactive) | > 100 | > 100 µM (inactive) | > 100 µM (inactive) | > 100 µM (inactive) | > 100 µM (inactive) | > 100 µM (inactive) | > 100 µM (inactive) | > 100 µM (inactive) | > 100 µM (inactive) | > 100 µM (inactive) | > 100 µM (inactive) | > 100 µM (inactive) | > 100 µM (inactive) |  |
| COc1cc2ccnc3c2c(c1O)N(C)C=C3 | 14.3 µM (inactive) | 7.66 µM (inactive) | 3.91 µM (inactive) | 24.9 µM (inactive) |  | 24.9 µM (inactive) | 15 | 7.78 µM (inactive) | 13.4 µM (inactive) | 17.7 µM (inactive) | 25.5 µM (inactive) | 4.92 µM (inactive) | 23 µM (inactive) | 21.2 µM (inactive) | 9.08 µM (inactive) | 9.93 µM (inactive) | 17.4 µM (inactive) | 9.48 µM (inactive) | 4.18 µM (inactive) | 21.5 µM (inactive) |
| C=C(Br)COc1ccc2c(C)cc(=O)oc2c1 | 0.0721 µM (active) | 64.1 µM (inactive) | > 100 µM (inactive) | 88.5 µM (inactive) | 67 µM (inactive) | > 100 µM (inactive) | 57.7 |  |  | > 100 µM (inactive) | > 100 µM (inactive) | 99.1 µM (inactive) | 95.3 µM (inactive) | 12.5 µM (inactive) | > 100 µM (inactive) |  | 43.3 µM (inactive) | 60.5 µM (inactive) | 44.6 µM (inactive) |  |
| CCOC(=O)[C@@H](NC(=O)OC(C)(C)C)[C@@H](O)C(=O)OCC | > 100 µM (inactive) | > 100 µM (inactive) | > 100 µM (inactive) | > 100 µM (inactive) |  | > 100 µM (inactive) | > 100 | > 100 µM (inactive) | > 100 µM (inactive) | > 100 µM (inactive) | > 100 µM (inactive) | > 100 µM (inactive) | 62.8 µM (inactive) | > 100 µM (inactive) | > 100 µM (inactive) | > 100 µM (inactive) | > 100 µM (inactive) | > 100 µM (inactive) | > 100 µM (inactive) | > 100 µM (inactive) |
| CCCCC[C@@H]1OC(=O)[C@@]2(CC3c4ccccc4C2c2ccccc23)[C@H]1C(=O)OC | 24.6 µM (inactive) | 85.3 µM (inactive) | 79.6 µM (inactive) | 11.6 µM (inactive) |  |  | 29.9 | 71 µM (inactive) | 84.7 µM (inactive) | 28.4 µM (inactive) | > 100 µM (inactive) | 42.6 µM (inactive) | 23.6 µM (inactive) | > 100 µM (inactive) | > 100 µM (inactive) | 9.29 µM (inactive) | 39.7 µM (inactive) | 45.5 µM (inactive) | 9.68 µM (inactive) |  |
| CSc1[nH]nc(N)c1C(=O)Nc1ccc(C)cc1 | 97.9 µM (inactive) | 36.9 µM (inactive) | 49.5 µM (inactive) | 60.1 µM (inactive) | > 100 µM (inactive) | 48.8 µM (inactive) | 51.3 | 65 µM (inactive) | > 100 µM (inactive) | 74.1 µM (inactive) | > 100 µM (inactive) | 40.1 µM (inactive) | 76.9 µM (inactive) | 19.5 µM (inactive) | 90.6 µM (inactive) | > 100 µM (inactive) | 32.2 µM (inactive) | 55.2 µM (inactive) | 51.3 µM (inactive) |  |
